In patent publication US20210228548A1, “PHARMACEUTICAL COMPOSITION FOR PREVENTING, ALLEVIATING OR TREATING OSTEOARTHRITIS, CONTAINING RHODANINE DERIVATIVE AS ACTIVE INGREDIENT” (Avixgen Inc., priority 2018, published 2021):
“Also recorded” adds a separate entry of the source.

Experiments:
Assay type in all cases: in vivo, C57/BL6 mice
[1] = tested on: mice with osteoarthritis induced by DMM; test: Osteoarthritis induced by destabilization of the medial meniscus (DMM): staining, OARSI grade, subchondral bone plate thickness; conditions: intra-articular 0.0075, 0.015, 0.03 mg/kg once a week, three injections; for thickness of the subchondral bone plate (SBP): versus vehicle group (significantly increased), FIGS. 8B, 10B, 12B; for inflammation response in whole joint and cartilage tissues (images and OARSI grade): versus vehicle group, FIGS. 7B, 9B, 11B, 8A, 10A, 12A
Experimental: Mice with osteoarthritis induced by destabilization of the medial meniscus (DMM) were prepared. As a control group, a group (sham) whose meniscus was not damaged during surgery was used.
Specifically, osteoarthritis was induced by damaging the menisci of joints of about 12-week-old male C57/BL6 mice, and each therapeutic agent (AVIX-7, MA3001 or MA6004) was injected intra-articularly.
Each of the therapeutic agents was used at doses of 0.0075 mg/kg, 0.015 mg/kg and 0.03 mg/kg mouse body weight. Each therapeutic agent was administered by injection once a week, and the amount of each therapeutic agent administered at each time point was 10 μl. One week after the day of the last injection of a total of three injections, the mice were sacrificed and the effect of each therapeutic agent on the amelioration of osteoarthritis was evaluated.
In order to evaluate the effect of the compounds of the present disclosure on the amelioration of osteoarthritis, mice were subjected to destabilization of the medial meniscus (DMM) to induce osteoarthritis and were treated with AVIX-7, MA3001 or MA6004. In addition, the cartilage and joint tissues were stained with hematoxylin-eosin/safranin-O, and the effect of AVIX-7, MA3001 or MA6004 on the amelioration of osteoarthritis was evaluated pathologically. […] The OARSI grading method is described in Table 4 below.

ZIP8-overexpressing mice [2] = test: Cartilage destruction in mice with osteoarthritis induced by ZIP8 overexpression (safranin-O staining, modified Mankin score); conditions: Ad-ZIP8 mice, three injections; for modified Mankin score (degree of cartilage destruction): intra-articular 0.0075, 0.015, 0.03 mg/kg once a week, vehicle group 2 or higher, also decreased concentration-dependently, FIGS. 2A, 4A, 6A; for loss of the cartilage matrix (safranin-O staining of whole joint and cartilage): intra-articular co-injection 0.0075, 0.015, 0.03 mg/kg once a week, versus vehicle group, FIGS. 1, 3, 5
Experimental: (§1) Osteoarthritis-induced mice were prepared by overexpressing the zinc importer ZIP8 in the cartilage and joint tissues of mice.
(§2) Specifically, the cartilage and joint tissues of about 12-week-old male C57/BL6 mice were injected intra-articularly with a normal control adenovirus (Ad-C) or a ZIP8-expressing adenovirus (Ad-S1c39a8). A vehicle group was treated only with a vehicle without a vector. Each of the adenoviruses was injected at a concentration of 1×10^9 PFU a total of three times (once a week).
(§3) Meanwhile, in order to evaluate the effect of each of the therapeutic agents AVIX-7, MA3001 and MA6004 on the amelioration of osteoarthritis induced by ZIP8 overexpression, AVIX-7, MA3001 or MA6004 was co-injected into the joint when each adenovirus was injected.
(§4) Each of the therapeutic agents was used at doses of 0.0075 mg/kg, 0.015 mg/kg and 0.03 mg/kg mouse body weight. Each therapeutic agent was administered by injection once a week, and the amount of each therapeutic agent administered at each time point was 10 μl. One week after the day of the last injection of a total of three injections, the mice were sacrificed and the degree of cartilage destruction and the degree of occurrence of synovitis were analyzed.
In order to evaluate the therapeutic effect of AVIX-7, MA3001 or MA6004 on osteoarthritis in ZIP8-overexpressing mice, whole joint and cartilage tissues were stained with safranin-O and the degree of cartilage destruction was checked.
In addition, the degree of safranin-O staining (reflecting the degree of cartilage destruction) according to Table 2 below was observed and degraded according to the modified Mankin score (Mankin, Henry J., and Louis Lippiello. JBJS 52.3 (1970): 424-434.), and the grades were quantified graphically. The Mankin score is an index indicating the degree of arthritis and may be determined by the degree of safranin-O staining in mice, and the lower the Mankin score, the closer to normal.

ZIP8-overexpressing mice [3] = test: Synovitis in ZIP8-overexpressing animal model (hematoxylin-eosin/safranin-O staining, synovitis score); conditions: Ad-ZIP8 mice, intra-articular 0.0075, 0.015, 0.03 mg/kg once a week, three injections; for score of synovitis: untreated ZIP8 mice 2 or higher, FIGS. 2B, 4B, 6B; for inflammatory response (penetration of inflammatory cells into the synovium): versus vehicle group, FIGS. 1, 3, 5
Experimental: as §1, §2, §3, §4
In order to evaluate the osteoarthritis amelioration effect of each of the therapeutic agents developed in the present disclosure, the ZIP8-overexpressing animal model was treated with AVIX-7, MA3001 or MA6004, and the cartilage and joint tissues of the animal model were stained with hematoxylin-eosin/safranin-O, and the presence or absence of synovitis was checked. The ZIP8-overexpressing animal model was prepared by the method described in Example 1.
In addition, the degree of synovitis was scored according to “Synovitis score: discrimination between chronic low-grade and high-grade synovitis. Histopathology 49, 358-364” described in Table 3 below, and was quantified graphically.

Row | Compound | thickness of the subchondral bone plate (SBP) [1] | inflammation response in whole joint and cartilage tissues (images and OARSI grade) [1] | modified Mankin score (degree of cartilage destruction) (ZIP8-overexpressing mice [2]) | loss of the cartilage matrix (safranin-O staining of whole joint and cartilage) (ZIP8-overexpressing mice [2]) | score of synovitis (ZIP8-overexpressing mice [3]) | inflammatory response (penetration of inflammatory cells into the synovium) (ZIP8-overexpressing mice [3])
1 | O=C(O)CCN1C(=O)/C(=C\c2ccc(-c3ccc(Cl)cc3)o2)SC1=S [AVIX-7, 3-{5-[5-(4-chlorophenyl)-furan-2-ylmethylene]-4-oxo-2-thioxo-thiazolidin-3-yl}-propionic acid] | decreased | alleviated | lower than that of the vehicle group | rescuing the loss of cartilage matrix; also recorded: concentration-dependently rescued | significantly decreased | alleviating synovitis; also recorded: alleviated
2 | CC(C)OC(=O)c1ccc(-c2ccc(/C=C3\SC(=S)N(CCCC(=O)O)C3=O)o2)cc1 [MA3001, 4-(5-((5-(4-(isopropoxycarbonyl)phenyl)furan-2-yl)methylene)-4-oxo-2-thioxothiazolidin-3-yl)butanoic acid] | decreased | alleviated | lower than that of the vehicle group | rescuing the loss of cartilage matrix; also recorded: concentration-dependently rescued | significantly decreased | alleviating synovitis; also recorded: alleviated
3 | O=C(O)CCN1C(=O)SC(Cc2ccc(-c3ccc(Cl)cc3)o2)C1=O (stereo not drawn) [MA6004, 3-(5-((5-(4-chlorophenyl)furan-2-yl)methyl)-2,4-dioxothiazolidin-3-yl)propionic acid] | decreased | alleviated | lower than that of the vehicle group | rescuing the loss of cartilage matrix; also recorded: concentration-dependently rescued | significantly decreased | alleviating synovitis; also recorded: alleviated
